Results as given in patent US20240108625A1, “CDK4/6 INHIBITORS AS A TREATMENT FOR CLONAL HEMATOPOIESIS” (Washington University, priority 2022, published 2024).
Entries after “also recorded” stand apart in the source; their conditions may differ.

System: HSPCs bearing CH mutations
Assay: Genomic analysis of CH clone expansion (change in VAF) in blood of SCLC patients randomized to carboplatin/etoposide with trilaciclib or placebo
Format: in vivo, human
Description: To evaluate the effect of trilaciclib on the expansion of CH clones in patients receiving chemotherapy, the following experiments were conducted. Blood samples obtained from a randomized, placebo-controlled trial of trilaciclib in SCLC patients receiving fist-line carboplatin and etoposide chemotherapy were sequenced pre- and post-treatment.
Blood samples were obtained from a clinical trial of SCLC patients receiving first-line carboplatin/etoposide combination chemotherapy randomized to concurrently receive the CDK4/6 inhibitor trilaciclib or placebo (FIG. 1). We performed targeted mutational analysis of genomic DNA from peripheral blood before and after five cycles of carboplatin/etoposide (˜5 months) in 59 individuals, 32 of whom received concurrent trilaciclib with each cycle of chemotherapy (FIG. 1, top row) and 27 who received placebo (FIG. 1, middle row). As a comparator group, sequential samples were obtained from 178 individuals from another longitudinal study (FIG. 1, bottom row) selected as cancer-free and matched in age and length of follow-up to the participants in the SCLC clinical trial. All samples were analyzed as described below to measure how the number of HSPCs bearing CH mutations (reflected by the variant allele frequency [VAF]) changed over time in individuals randomized to receive trilaciclib compared to placebo and to untreated healthy adults.
A custom-targeted CH panel was developed using VariantPlex (ArcherDX), an amplicon sequencing method that leverages bi-directional primers and molecular barcodes (MBCs) to enable reliable detection of extremely low VAF variants. The CH panel included exonic regions of the nine CH genes most commonly mutated in solid tumor patients (DNMT3A, TET2, ASXL1, PPM1D, TP53, CHEK2, JAK2, SRSF2, and SF3B1).
In brief, following DNA fragmentation, ligation with a universal MBC adapter was performed, tagging each DNA molecule with a unique molecular index (UMI) and allowing for unidirectional amplification of the sample using gene-specific primers. The resulting libraries were sequenced using a NovaSeq 6000 instrument. The average unique coverage per sample was 20,746×. Using tumor-normal dilution series from six AML patients, we developed a custom CH variant calling pipeline integrating three variant callers (Mutect2, Vardict, LoFreq) with post-calling filtering to remove germ line variants and artifacts. A critical feature of this pipeline is the empiric estimation of variant-specific error rates using a technical panel of normals consisting of 30 blood samples from children18.
The distribution of mutations within genes was characterized by notable enrichments for DDR genes (PPM1D, TP53, CHEK2) relative to DTA genes. For each CH mutation, the change in VAF between the first and second time points was calculated. […]

## CN1CCN(c2ccc(Nc3ncc4cc5n(c4n3)C3(CCCCC3)CNC5=O)nc2)CC1 [trilaciclib]
SCLC patients, carboplatin/etoposide, FIG. 5
  growth suppression of CH clones by gene: TET2: largest impact
SCLC patients, concurrent with five cycles of carboplatin/etoposide (~5 months), relative to placebo group
  expansion of CH mutations in the DDR pathway (TP53, CHEK2, PPM1D) following chemotherapy (change in VAF): reduced expansion following chemotherapy; also recorded: lower expansion with chemotherapy
SCLC patients, concurrent with five cycles of carboplatin/etoposide (~5 months), vs placebo
  growth of CH clones bearing mutations in epigenetic modifiers DTA (DNMT3A, TET2, ASXL1): suppressed the growth of CH clones
Carboplatin chemotherapy
  carboplatin-related clonal hematopoiesis (DDR and DTA): inhibited carboplatin-related clonal hematopoiesis; also recorded: protects against both DDR and DTA clonal hematopoiesis
